One compound from patent US7732599B2, “Process for preparing tetrahydrobiopterin and analogs of tetrahydrobiopterin” (BioMarin Pharmaceutical Inc., priority 2003, dated 2010) can be followed below.

Each structure is given as a SMILES string.

This data set is described as follows: Solubility in the reaction solvent dimethylaminoacetate at room temperature. Type of data set: physicochemical. As to conditions: described as low solubility. How it is done: The conversion of the primary hydroxyl of L-Neopterin to a thioether was performed to prepare 6-((1R,2R)-1,2-dihydroxy-3-phenylthiopropyl)-2-[(methylethyl)amino]-3-hydropteridin-4-one (the compound labeled “15” in FIG. 4). To a flask containing 50 grams of 6-((2S,1R)-1,2,3-trihydroxypropyl)-2-[(1Z)-1-aza-2-(dimethylamino)vinyl]-3-hydropteridin-4-one (DMA-Neopterin, the compound labeled “6” in FIG. 2) and 400 ml of dimethylaminoacetate was added to the flask. To this stirring mixture 1 molar equivalent of diphenyl disulfide and tributylphosphine were added to the flask. […] It is believed that the thioether product is more soluble in dimethylaminoacetate. The reaction mixture was allowed to was allowed to stir for 4 hours at room temperature. Nine grams of the thioether product was isolated.

For the compound `CN(C)C=Nc1nc2ncc([C@@H](O)[C@@H](O)CO)nc2c(=O)[nH]1` [DMA-Neopterin, 6-((2S,1R)-1,2,3-trihydroxypropyl)-2-[(1Z)-1-aza-2-(dimethylamino)vinyl]-3-hydropteridin-4-one], the solubility in dimethylaminoacetate result is listed as “approximately 3.5 mg/ml”.
